# ChEMBL document CHEMBL1155587, “Spasmolytic constituents from Eucalyptus camaldulensis var. obtusa leaves” (2000)
# How the values were obtained:
# [1] = test system: Jejunum; test: Spasmolytic activity in rabbit jejunum assessed as relaxation of K+-induced muscle contraction at 10 ug/ml relative to calcium; format: functional, Oryctolagus cuniculus
# [2] = test system: Jejunum; test: Spasmolytic activity in rabbit jejunum assessed as relaxation of K+-induced muscle contraction at 30 ug/ml relative to calcium; format: functional, Oryctolagus cuniculus
SMILES,Ratio [1],Ratio [2]
CC(=O)O[C@H]1CC[C@]2(C)[C@H]3C=C[C@]45OC(=O)[C@@]6(CC[C@@H](C)[C@H](C)[C@H]64)CC[C@@]5(C)[C@]3(C)CC[C@H]2C1(C)C,6.2,17.51
C[C@H]1[C@H](C)CC[C@@]23CC[C@]4(C)[C@@](C=C[C@@H]5[C@@]6(C)CC[C@H](OC=O)C(C)(C)[C@@H]6CC[C@]54C)(OC2=O)[C@H]13 [CAMALDULIN],2.03,3.47
